Among the data in patent US20200016231A1, “BIOFILM DISRUPTING COMPOSITION” (Whiteley Corporation Pty Ltd, priority 2016, published 2020) are viability values, retold here.

Assay [1] has as its system methicillin-resistant Staphylococcus aureus. Description: microbe, parasite or virus in culture. The settings on record: MRSA.
The subject of another assay is Streptococcus pyogenes. Kind of assay: Biofilm viability, resazurin assay, Streptococcus pyogenes clinical isolates. The settings on record: read-out: % bacterial viability; for viability at 10000 µM: GSH 10 mM; for viability at 15000 µM: GSH 15 mM; for viability at 30000 µM: GSH 30 mM. The assay is classed as cell-based. On the procedure: Bacterial isolates were grown in Tryptone Soya Broth (TSB) medium for 24 hours at 37° C., in a shaking incubator set at 150 rpm. After this time the organisms were harvested by centrifugation (5000×g, 5 min at 10° C.). After centrifugation, the supernatant liquid was removed and the bacterial pellet was suspended in 1×Phosphate Buffered Saline (PBS). To initiate biofilm growth, the bacterial suspension from PBS was immediately re-suspended in TSB and 250 μL of bacterial cell suspension (OD600=0.5±0.05) were added into the wells of 96-well plates (Corning Corp. USA) and incubated at 37° C. for 48 h at 150 r.p.m.
After 24 h, treated biofilms supernatant were replaced with 200 μL of 1×PBS, followed by addition of 15 μL of a 0.05% w/v solution of resazurin (Sigma-Aldrich), and incubated further at 37° C., 150 r.p.m.
After a further 24 h, the fluorescent intensity of the biofilm was determined at Ex544 nm and Em590 nm (Tecan infinite M1000 pro microplate reader). Results are plotted as percentage (%) of bacterial vaiability calculated based on fluorescent intensity. Control or untreated bacterial biofilm fluorescent intensity always considered as 100% bacterial viability and % viability under rest of treatment conditions were calculated with reference to control.
It should be noted that the Resazurin assay works by recording fluorescence intensity and depends upon two factors (total number of bacteria and total number of viable bacteria in a given biofilm sample).
The treatments shown in column 1 of Table 10 were tested against three clinical isolates of Enterobacter species. The treatments used are given in column 1, and the % bacterial viability for each strain tested are given in the subsequent columns (see also FIG. 9).
On the technique in general: Resazurin is reduced to fluorescent resorufin, in cell work by metabolically active cells.

By viability is commonly meant a read-out of living cells in per cent, often relative to untreated cells.

Like-named read-outs stand apart in the source and are kept apart here.

With `N[C@@H](CCC(=O)N[C@@H](CS)C(=O)NCC(=O)O)C(=O)O` [GSH, glutathione], the viability at 10000 µM came to 88.8% in assay [1] (read-out: % bacterial viability, MRSA 27060 Left leg, GSH 10 mM); 73.1% in assay [1] (read-out: % bacterial viability, MRSA 30616 Chin vesicle, GSH 10 mM); 86.7% in assay [1] (read-out: % bacterial viability, MRSA - 0799 DFU, GSH 10 mM); 55.6% with Streptococcus pyogenes (361194 Left leg boil); 99.8% in the assay with Streptococcus pyogenes (371982 Skin Wound); 67.7% with Streptococcus pyogenes (386596 Head Wound). In addition, the viability at 15000 µM in assay [1] (read-out: % bacterial viability, MRSA 27060 Left leg, GSH 15 mM) worked out at 65.2%; in assay [1] (read-out: % bacterial viability, MRSA 30616 Chin vesicle, GSH 15 mM), 58.8%; in assay [1] (read-out: % bacterial viability, MRSA - 0799 DFU, GSH 15 mM), 75%; in the assay with Streptococcus pyogenes (361194 Left leg boil), 35.8%; in the assay with Streptococcus pyogenes (371982 Skin Wound) it was 90.2%; in the assay with Streptococcus pyogenes (386596 Head Wound), 42.7%. Further, the viability at 30000 µM in assay [1] (read-out: % bacterial viability, MRSA 27060 Left leg, GSH 30 mM) came out at 1.02%; in assay [1] (read-out: % bacterial viability, MRSA 30616 Chin vesicle, GSH 30 mM) it was 4.54%; in assay [1] (read-out: % bacterial viability, MRSA - 0799 DFU, GSH 30 mM), 33.1%; with Streptococcus pyogenes (361194 Left leg boil), 4.3%; in the assay with Streptococcus pyogenes (371982 Skin Wound) it was 15.4%; with Streptococcus pyogenes (386596 Head Wound), 22.3%.
